Results published in PubChem BioAssay AID179 (DTP/NCI, 2004).
pEC50, pIC50: −log10 of the molar value. Calls of active or inactive are those of the source.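 Rule for the calls: active = compounds giving half or more protection of infected cells from virus-caused growth loss, again on retest; inactive = the rest.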

Tested on: CEM cells HIV-1 protection, formazan growth assay
Test: NCI AIDS Antiviral Assay
Settings: for pIC50: measured here: growth of uninfected CEM cells
Outline: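 CEM (human) cells, HIV-1 infected vs uninfected, 5-point dosing, formazan growth read-out. Retest threshold 50% protection.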

Compound	pEC50	pIC50	outcome
Cc1cn(C(C)OCCO[Si](C)(C)C(C)(C)C)c(=O)[nH]c1=O (configuration not stated)	< 3.70	3.95	–
NC(=O)c1ncn2c1NC(=O)CC2	–	–	inactive
COc1ccc(C2Oc3ccccc3C(=O)C2N)cc1 (configuration not stated)	< 3.70	4.03	–
O=C(Nc1ccc(Cl)c(Cl)c1)NN1CCCCCC1	–	–	inactive
CC1(C)COC(c2ccccc2Cl)N1 (configuration not stated)	–	–	inactive
O=C(O)C#CC(=O)O	< 2.80	< 2.80	–
CC(NC(=O)N(C)C)NC(=O)N(C)C	–	–	inactive
CCOC(=O)C(CC[C@H]1c2[nH]c3ccccc3c2C[C@@H](C#N)N1C(=O)C(F)(F)F)C(=O)OCC	< 4.68	< 4.68	–
CC#CCCC1(C)CCCCN(C(=O)OC(C)C)C1OCC (configuration not stated)	< 4.36	< 4.36	–
O=C(O)CN1CCN(CC(=O)O)CCN(CC(=O)O)CC1	< 4.00	5.74	–
COC(=O)CCc1ccc2c(c1)CC1(Cc3ccccc3C1)C2	< 3.70	3.97	–
[N-]=[N+]=NCCOCn1ccc(=O)[nH]c1=O	< 3.70	< 3.70	–
COc1ccc(C2=C(N)c3ccccc3C2=O)cc1	< 3.70	< 3.70	–
NC(=O)C(=CNC(=S)NCc1ccccc1)C(N)=O	< 3.70	< 3.70	–
CCOC(=O)C1(c2ccc(O)c(O)c2)CCN(C)CC1	< 3.10	3.42	–
CCOC(=O)Nc1cc2nnc(-c3ccccc3)nc2c(N)n1	–	–	inactive
Nc1nc2ncn(CCO)c2c(=O)[nH]1	< 4.03	< 4.03	–
O=C(O)[C@@H]1CSC(c2ccccc2F)N1 (some centres not stated)	< 3.70	< 3.70	–
CCCC(O)c1cn(C(NC(=O)c2ccccc2)P(=O)(OCC)OCC)nn1 (configuration not stated)	< 3.70	< 3.70	–
CCOC(=O)c1cc2sc(NC(=O)c3cccs3)nc2o1	–	–	inactive
Brc1c2c(c(Br)c3nsnc13)N=S=N2	–	–	inactive
S=C1SSC(=S)SS1	< 4.48	< 4.48	–

Compound	pEC50	pIC50	outcome
N=C(N)c1ncn(C2OC(CO)C(O)C2O)n1 (configuration not stated)	–	–	inactive
COc1cc(NS(C)(=O)=O)ccc1Nc1c2ccccc2nc2c1[nH]c1ccc(NC3OC(CO)C(O)C(O)C3O)cc12 (configuration not stated)	< 6.92	7.33	–
C=C1CCC2C(C)(CO)C(O)CCC2(C)C1CC(O)/C(=C/CO)C(=O)O (configuration not stated)	–	–	inactive
[N-]=[N+]=Nc1c(Cc2ccccc2)c(=O)oc2ccccc12	< 3.70	4.49	–
CC(C)[Si](OC1=C(C(=O)N(C)c2cccc(Cl)c2)CCCC1)(C(C)C)C(C)C	< 3.70	5.01	–
CN(NC(=O)/C(=C/C=C/c1ccccc1)NC(=O)c1ccccc1)C1=C(Cl)C(=O)[N+](c2ccccc2)=CC1	< 3.70	4.45	–
O=C1CCC2(c3ccc(F)cc3)Nc3ncncc3N12 (configuration not stated)	< 3.46	< 3.46	–
CO/N=C1/c2sccc2[C@H](NC(=O)C(Cc2ccccc2)NC(=O)OC(C)(C)C)[C@@H]1O (some centres not stated)	< 3.70	< 3.70	–
O=C1OI(C#Cc2ccccc2)c2ccccc21	< 4.70	5.48	–
CC1C(O)O[C@@H]2O[C@@]3(C)CC[C@H]4[C@H](C)CC[C@@H]1[C@@]24O3 (some centres not stated)	< 3.70	< 3.70	–
CCc1c(C)[nH]c2c1/C(=N/N=C1\CCCc3[nH]c(C)c(CC)c31)CCC2	–	–	inactive
CC1=NC(C)CNC(C)(C)CC(C)=NC(C)CNC(C)(C)C1 (configuration not stated)	< 3.70	< 3.70	–
COc1ccc(-c2c3c([nH]c(=S)c2C#N)CCC3)cc1	3.75	< 3.70	–
O=C1c2ccccc2C(=O)c2sc(Nc3ccccc3C(F)(F)F)nc21	< 3.70	4.96	–
CCOc1ccc(N=C2NC(=O)C(CC(=O)Nc3ccccc3[N+](=O)[O-])S2)cc1 (configuration not stated)	< 3.50	< 3.50	–
Cc1ccc([N+](=O)[O-])cc1NC(=O)N1CCCCC1C (configuration not stated)	< 3.70	< 4.00	–
COc1ccc(/C=C/c2ccc3ccccc3[n+]2C)cc1OC	7.20	4.28	–
CCCN(CCC)/N=C/c1c2c(O)c3c(O)c(C)c4c(c3c1O)C(=O)C(C)(O/C=C/C(OC)C(C)C(OC(C)=O)C(C)C(O)C(C)C(O)C(C)/C=C/C=C(C)C(=O)N2)O4 (configuration not stated)	< 3.70	5.46	–
COc1ccc(/C=C/c2ccnc3ccccc23)cc1OC	7.20	4.30	–
Cc1cc(S(=O)(=O)Nc2cc(N)[nH]n2)c(SCc2nc(N)nc(N(C)C)n2)cc1Cl	< 3.70	< 3.70	–
N=C1CSC2=NC3=C(CCC/C3=C\c3ccccc3)C(c3ccccc3)N12 (configuration not stated)	< 4.73	< 4.73	–
Cc1cc(C)nc(NS(=O)(=O)c2ccc(NNC(=O)c3cccc4c(=O)c5ccccc5[nH]c34)cc2)n1	< 3.70	4.50	–

Compound	pEC50	pIC50	outcome
Brc1ccc(-c2[nH]c3ccccc3c2N=Nc2ccccc2)cc1	< 3.70	4.87	–
CCOC(=O)c1[nH]cc(C)c1-c1cccn1-c1ccc(Cl)cc1[N+](=O)[O-]	< 3.70	4.51	–
O=C(O)[C@@H]1CCS(=O)(=O)N1	< 3.70	< 3.70	–
O=C(Cc1ccccc1)NNc1nc(NNC(=O)c2ccncc2)nc(Nc2ccc([N+](=O)[O-])cc2)n1	< 4.00	4.94	–
N#C/C(=C\c1ccccc1)c1ccccc1[N+](=O)[O-]	< 3.70	4.90	–
N=c1ccn2c(n1)OC1C(O)C(CCl)OC12 (configuration not stated)	< 3.70	6.84	–
CC1OC(OC2C(Oc3ccc4c(=O)c(-c5ccc(O)c(O)c5O)coc4c3)OC(CO)C(O)C2O)C(O)C(O)C1O (configuration not stated)	< 3.70	4.17	–
O=C1CC(c2ccccc2)C2(C(=O)NC(=S)NC2=O)C(c2ccccc2)C1 (configuration not stated)	< 4.12	4.26	–
NC(P(=O)(O)O)P(=O)(O)O	< 3.70	< 3.70	–
C=C(CCCO)[C@@H]1CC[C@](C)(O)[C@H]1C	–	–	inactive
Cc1nc(-c2cc3cc([N+](=O)[O-])ccc3oc2=O)cs1	< 3.70	4.13	–
CC(C)(C)C1CC[C@H]2c3c([nH]c4ccccc34)[C@H]3C(=O)N(c4ccc(F)cc4)C(=O)[C@H]3[C@H]2C1 (some centres not stated)	< 4.93	< 4.93	–
NC1=NC2=c3ccccc3=C(c3cnccn3)C2(c2cnccn2)c2ccccc21 (configuration not stated)	< 4.03	4.15	–
CCN(CC)C(=Nc1ccc(Cl)c(Cl)c1)SC(NC=O)=C(Cl)Cl	< 3.70	4.71	–
O=C1C(c2ccccc2)=C(O)c2cccc3cccc1c23	< 3.04	4.07	–
O=c1[nH]nnc2ccccc12	< 3.61	< 3.61	–
NCCC(O)C(=O)NC1CC(N)C(OC2OC(CN)C(O)C(O)C2O)C(O)C1OC1OC(CO)C(O)C(N)C1O (configuration not stated)	–	–	inactive
O=C1/C(=N\[O-])C(S(=O)(=O)[O-])=Cc2cc(S(=O)(=O)[O-])cc(O)c21.O=C1/C(=N\[O-])C(S(=O)(=O)[O-])=Cc2cc(S(=O)(=O)[O-])cc(O)c21.[Cu+2]	< 3.70	3.91	–
Cc1nc2ccc(S(=O)(=O)Nc3ccccc3Cl)cc2c(=O)n1NC(=O)CNc1ccccc1Cl	< 3.70	3.77	–
Cc1ccc(C2CC(=O)CC(c3ccc(C)cc3)C23C(=O)NC(=O)NC3=O)cc1 (configuration not stated)	< 4.00	4.19	–
C=CCC1(CC(=O)O)CC=CCC12OCCO2 (configuration not stated)	< 3.70	< 3.70	–
O=S1(=O)CCc2ccccc2C(Cl)C1 (configuration not stated)	< 3.39	< 3.39	–

Compound	pEC50	pIC50	outcome
C=CCC1C(O[Si](C)(C)C(C)(C)C)C(CO[Si](C)(C)C(C)(C)C)OC1n1ccc(=O)[nH]c1=O (configuration not stated)	< 3.70	5.56	–
CCCCN(CC)C(=O)COc1cc2c(O)c3c(O)c(C)c4c(c13)C(=O)C(C)(O/C=C\C(OC)C(C)C(OC(C)=O)C(C)C(O)C(C)C(O)C(C)/C=C\C=C(\C)C(=O)N2)O4 (configuration not stated)	–	–	inactive
CCOC(=O)C1=C(C)N(NC(=O)OC)C2(N)N(NC(=O)OC)C(C)=C(C(=O)OCC)C12C#N (configuration not stated)	< 3.27	< 3.27	–
CC(CS(=O)(=O)O)NC(CO)(CO)CO (configuration not stated)	< 3.70	< 3.70	–
O=C(N=Nc1c(O)[nH]c2ccccc12)c1ccccc1O	< 4.60	4.81	–
Cc1n[nH]c(=O)n1C1CCCC1	< 3.70	< 3.70	–
N#CC1(C#N)C(C#N)(C#N)C12CCCCC2	< 4.70	5.00	–
COc1cc(OC)c(OC)cc1/C=C1\C=Cc2ccccc21	< 4.75	< 4.75	–
C[C@]12Cc3cn[nH]c3C(=O)C1CC[C@@H]1C2CC[C@@]2(C)C1CC[C@@H]2O (some centres not stated)	4.70	4.66	–
COC(=O)c1cc(Cc2cc(C(c3cc(Cc4cc(Cl)c(O)c(C(=O)OC)c4)c(O)c(C(=O)OC)c3)C(Cl)(Cl)Cl)cc(C(=O)OC)c2O)cc(Cl)c1O	< 3.70	< 3.70	–
CC[N+](C)(C)CC(O)(O)C(F)F	< 3.70	< 3.70	–
c1ccc(C2=NN(c3ccccc3)C3(S2)SC(c2ccccc2)(c2ccccc2)c2ccccc23)cc1 (configuration not stated)	< 4.30	< 4.30	–
[N-]=[N+]=C1C(=O)NC(=O)N2C3OC(CO[C@@H]12)C(O)C3O (some centres not stated)	< 3.70	< 3.70	–
O=CC(O)C(O)C(O)C(O)CON1C[C@@H](O)C(O)[C@@H](O)C1 (some centres not stated)	< 3.70	< 3.70	–
CC/C(Cl)=N\OC(=O)Nc1ccc(C#N)cc1	< 3.70	4.74	–
Cc1c(C)c(C)c(-n2c(=O)n(C)c(=O)n2-c2cc(C(C)(C)C)cc(C(C)(C)C)c2O)c(C)c1C	< 3.70	4.88	–
Cc1ccc(/C=c2\cc3oc(=O)c4cccc(c4-3)c2=O)cc1	< 3.70	5.42	–
CC(=O)CC(c1ccc2c(c1)OCO2)c1c(O)c2ccccc2oc1=O (configuration not stated)	< 3.70	3.87	–
NC(=O)c1ccc[n+](C2=C([O-])c3ccccc3C(=O)/C2=N\S(=O)(=O)c2ccccc2)c1	< 3.70	4.95	–
COc1cc(-c2nn3c(C)c(-c4ccccc4)nc3s2)cc(OC)c1OC	3.75	< 3.70	–
O=C1CCC(=O)Nc2ccccc2-c2ccccc2N1	–	–	inactive
Cn1c2ccccc2c2nnc(N/N=C/c3cccnc3)nc21	< 3.70	< 3.70	–
